Measured values published in PMC12584752, “Covalent fragment screening to inhibit the E3 ligase activity of bacterial NEL enzymes SspH1 and SspH2” (RSC Chemical Biology, 2025).

The molecules below were run against SspH1 (161–700) (Salmonella typhimurium, UniProt D0ZVG2) (assay: Round 1 intact protein LC-MS covalent fragment labelling screen and dilution series). Settings: round 1 screen; 0.5 μM SspH1, 50 μM fragments, 24 hours at 4 °C.
Assay type: binding
Set-up: Recombinant IpaH9.8 (21–545) and SspH1 (161–700) were incubated at 0.5 μM; His-tag (N, cleaved yes); made in house; host or cells: E. coli BL21
Description: A diverse library of 227 compounds with chloroacetamide warheads, featuring a diversity of molecular weight (162–321 Da) and clog P (−1.4 to 3.4) (Table S1), were screened against Salmonella and Shigella NEL E3 ligases using our intact protein liquid chromatography mass spectrometry (LC-MS) platform as previously described.[39,40] Briefly, recombinant SspH1 (161–700[30]) and IpaH9.8 (21–545[29]) (Fig. 1A and B) were incubated with 50 μM fragments for 24 hours at 4 °C before analysis by LC-MS (Fig. 1C). Raw counts were deconvoluted and the labelling percentage calculated by detection and comparison of protein and protein-fragment molecular weights.
Fig. 1 Intact protein LCMS screening of covalent fragment library against NEL proteins. (A) Cartoon depicting conserved NEL E3 ligase domains; (B) overlaid structures of SspH1 (blue, PDB 9H6W[30]) and IpaH9.8 (green, PDB 6LOL[29]) aligned on NEL domain; (C) workflow of covalent fragment screening using intact LC-MS; (D) fragment labelling percentages for SspH1 and IpaH9.8 with fragments 1–3 highlighted. Recombinant IpaH9.8 (21–545) and SspH1 (161–700) were incubated at 0.5 μM with 50 μM fragments for 24 hours at 4 °C, before fragment labelling was analysed by intact LC-MS; (E) chemical structures of fragments 1–3.
We next analysed the potency of compounds 4–10 against SspH1. The seven compounds were obtained as purified compounds (Table S2) and screened against SspH1 by intact LC-MS (Fig. 3A) with two-fold serial dilution (100–6.25 μM). To confirm which of the two cysteines in the SspH1 161–700 construct were labelled, we repeated the concentration response experiment with a catalytic cysteine mutant of SspH1 (C492K) (Fig. 3B). The complete abrogation of labelling confirmed that all […] compounds labelled the catalytic cysteine of SspH1.
1 μM IpaH9.8 or SspH1 were incubated with […] fragments for 24 hours at 4 °C, in 25 mM HEPES pH 7.5, 50 mM NaCl buffer. Intact protein LC-MS was performed as previously described.[40] The following deconvolution conditions were used for recombinant proteins studied in this work:
Dilution series experiments were performed as for 1st round screening. 1 μM OTUD4, OTUD5 or 0.5 μM HOIL, UbcH5A, SspH2, SspH1 C492K were incubated with 100–6.25 μM compounds for 24 hours at 4 °C, in 25 mM HEPES pH 7.5, 50 mM NaCl buffer. Intact protein LC-MS was performed as previously described.[40] The following deconvolution conditions were used for recombinant proteins studied in this work: […]

SspH1 (161–700), sequence (D0ZVG2 161-700): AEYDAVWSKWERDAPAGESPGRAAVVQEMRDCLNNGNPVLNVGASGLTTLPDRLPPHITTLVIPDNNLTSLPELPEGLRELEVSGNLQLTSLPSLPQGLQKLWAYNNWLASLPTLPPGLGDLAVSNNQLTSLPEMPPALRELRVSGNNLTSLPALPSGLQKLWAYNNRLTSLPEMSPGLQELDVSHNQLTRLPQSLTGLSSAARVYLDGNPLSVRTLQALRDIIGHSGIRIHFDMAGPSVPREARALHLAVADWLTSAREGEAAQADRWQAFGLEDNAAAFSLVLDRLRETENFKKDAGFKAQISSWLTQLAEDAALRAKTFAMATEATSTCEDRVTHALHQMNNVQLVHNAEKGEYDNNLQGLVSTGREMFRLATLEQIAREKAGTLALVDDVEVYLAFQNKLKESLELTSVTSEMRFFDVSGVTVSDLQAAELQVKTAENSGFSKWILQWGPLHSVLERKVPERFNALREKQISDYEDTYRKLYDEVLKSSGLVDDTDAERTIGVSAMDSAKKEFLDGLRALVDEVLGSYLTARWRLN

Row | SMILES | protein labelling percentage
1 | O=C(CCl)N1CCCN(C(=O)c2ccc(Cl)cc2)CC1 [fragment 1] | greater than 30%
2 | Cc1cccn2cc(CCNC(=O)CCl)nc12.Cl [fragment 3] | greater than 30%
3 | Cl.O=C(CCl)N1CCC(n2nc3ccccc3n2)CC1 [fragment 2] | greater than 30%
